From PubChem BioAssay (NCI)
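Where inhibition never reached the appropriate level, the endpoint shown equals the highest concentration tested. Otherwise, values were interpolated linearly from a five-concentration, 48-hour dose response in 96-well plates. Abbreviation: GI50, concentration required for 50% inhibition of growth. TGI: concentration producing complete growth inhibition.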

Tests used:
Assay in all cases: NCI-60 cell line screen, 48 h
OVCAR-8 ovarian = tested on: OVCAR-8 ovarian
HL-60(TB) leukemia = tested on: HL-60(TB) leukemia
786-0 renal = tested on: 786-0 renal
SN12C renal = tested on: SN12C renal
UACC-62 melanoma = tested on: UACC-62 melanoma
OVCAR-3 ovarian = tested on: OVCAR-3 ovarian
ACHN renal = tested on: ACHN renal
IGROV1 ovarian = tested on: IGROV1 ovarian
RPMI-8226 leukemia = tested on: RPMI-8226 leukemia
CCRF-CEM leukemia = tested on: CCRF-CEM leukemia

Structure (SMILES) | GI50 (OVCAR-8 ovarian) [µM] | TGI (OVCAR-8 ovarian) [µM] | GI50 (HL-60(TB) leukemia) [µM] | TGI (HL-60(TB) leukemia) [µM] | GI50 (786-0 renal) [µM] | TGI (786-0 renal) [µM] | GI50 (SN12C renal) [µM] | TGI (SN12C renal) [µM] | GI50 (UACC-62 melanoma) [µM] | TGI (UACC-62 melanoma) [µM] | GI50 (OVCAR-3 ovarian) [µM] | TGI (OVCAR-3 ovarian) [µM] | GI50 (ACHN renal) [µM] | TGI (ACHN renal) [µM] | GI50 (IGROV1 ovarian) [µM] | TGI (IGROV1 ovarian) [µM] | GI50 (RPMI-8226 leukemia) [µM] | TGI (RPMI-8226 leukemia) [µM] | GI50 (CCRF-CEM leukemia) [nM] | TGI (CCRF-CEM leukemia) [µM]
CN(CCOc1ccc(C#N)cc1)CCOc1ccc(C#N)cc1 | 29 | > 100 | 20.7 | > 100 | > 100 | > 100 | > 100 | > 100 | > 100 | > 100 | 29.8 | > 100 | 41.5 | > 100 | 1.66 | 24.7 | 7.39 | > 100 | – | –
Nc1nc2c(c(=O)[nH]1)CN(c1ccc(S(N)(=O)=O)cc1)CN2 | – | > 100 | – | – | – | > 100 | – | > 100 | – | > 100 | – | > 100 | – | > 100 | – | > 100 | – | > 100 | – | –
COc1ccc(-c2cncn2-c2ccc(OC)cc2)cc1 | 21.1 | 52.8 | 9.06 | 26.2 | 21.9 | 49.1 | 18.1 | 48.3 | 15.7 | 53.1 | 20 | 45.5 | 21.3 | 60.4 | 18.7 | 62.5 | 10.9 | 32.5 | – | –
Fc1ccc2[nH]c3c(NCCCN4CCOCC4)ncnc3c2c1 | 66.8 | > 100 | 51.9 | > 100 | > 100 | > 100 | 77.8 | > 100 | 17.5 | 40.4 | > 100 | > 100 | 47.5 | > 100 | 49.1 | > 100 | 31.4 | > 100 | – | –
CCCCn1cnc2c(SC)ncnc21 | – | > 100 | – | – | – | > 100 | – | > 100 | – | > 100 | – | > 100 | – | > 100 | – | > 100 | – | > 100 | – | –
CC(C)(C)c1ccc(S(=O)(=O)N[C@H]2CC[C@H]3[C@@H]4CCc5cc(OS(=O)(=O)O)ccc5[C@H]4CC[C@]23C)cc1 | 2.79 | 8.46 | – | – | 2.5 | 6.3 | 1.81 | 3.58 | 1.81 | 3.72 | – | – | 2.01 | 4.24 | 3.63 | 10.9 | 2.55 | 7.37 | 2880 | 9.25
CC(=O)n1c2ccccc2c2nc3nc(Oc4ccc(C)cc4)c4ccccc4c3cc21 | – | > 100 | – | – | – | > 100 | – | > 100 | – | > 100 | – | > 100 | – | > 100 | – | > 100 | – | > 100 | – | > 100
CCC12CCCC(=O)N1C(CO)C(c1ccccc1)O2 (stereo not given) | – | > 100 | – | – | – | > 100 | – | > 100 | – | > 100 | – | > 100 | – | > 100 | – | > 100 | – | > 100 | – | > 100
CC(=O)OCC1OC(n2ccc(=O)[nH]c2=O)C(OC(C)=O)C1OC(C)=O (stereo not given) | > 100 | > 100 | – | – | > 100 | > 100 | > 100 | > 100 | > 100 | > 100 | > 100 | > 100 | > 100 | > 100 | > 100 | > 100 | > 100 | > 100 | – | –
CCCCCCCCCCCC[n+]1ccc(CCCCCCCCC)cc1 | – | – | 0.362 | 1.83 | 1.38 | 3.07 | – | – | 0.465 | 1.73 | – | – | – | – | – | – | – | – | – | –
O=C1C(Cl)=C(Nc2cccc(O)c2)C(=O)N1c1cc(Cl)c(Cl)cc1Cl | 24 | 75.5 | – | – | 16.7 | 32.7 | 15.6 | 29.4 | 17.2 | 32.5 | 15.9 | 36.1 | 14.4 | 27.5 | 8.87 | 21.2 | 14.4 | 45.8 | 450 | > 100
CC(=O)Oc1ccc(O)c(O)c1C/C=C(\C)CC/C=C(\C)CC/C=C(\C)CCC=C(C)C | – | 1.79 | – | 4.11 | – | 2.83 | – | 0.868 | – | – | – | – | – | 0.823 | – | – | – | – | – | –
NC(C(=O)[O-])C(=O)[O-].NC1CCCCC1N.[Pt+4] | > 100 | > 100 | 5.28 | > 100 | 5.79 | > 100 | 4.5 | > 100 | 2.39 | 54.5 | 2.45 | 24 | 11.2 | > 100 | 16.3 | > 100 | 0.957 | 19.2 | – | –
COc1cc(CNc2ccc(C(C)C)cc2)cc(OC)c1OC | – | 73.4 | – | – | – | 30.2 | – | 31.4 | – | 33 | 16.3 | 33.4 | – | 60.1 | – | 70 | – | 38.2 | – | 50.5
COc1nc2nccc-2c2occn12 | – | > 100 | – | – | – | > 100 | – | > 100 | – | > 100 | – | > 100 | – | > 100 | – | > 100 | – | > 100 | – | –
